Among the data in US7425640B2, “Substituted 5-carboxyamide pyrazoles and [1,2,4]triazoles as antiviral agents” (priority 2004, dated 2008) are IC50 values, retold here.

The structures appear in SMILES notation.

HCV RNA-dependent RNA polymerase NS5B (Δ21), sequence (P26663 2420-2989, stated change not applied): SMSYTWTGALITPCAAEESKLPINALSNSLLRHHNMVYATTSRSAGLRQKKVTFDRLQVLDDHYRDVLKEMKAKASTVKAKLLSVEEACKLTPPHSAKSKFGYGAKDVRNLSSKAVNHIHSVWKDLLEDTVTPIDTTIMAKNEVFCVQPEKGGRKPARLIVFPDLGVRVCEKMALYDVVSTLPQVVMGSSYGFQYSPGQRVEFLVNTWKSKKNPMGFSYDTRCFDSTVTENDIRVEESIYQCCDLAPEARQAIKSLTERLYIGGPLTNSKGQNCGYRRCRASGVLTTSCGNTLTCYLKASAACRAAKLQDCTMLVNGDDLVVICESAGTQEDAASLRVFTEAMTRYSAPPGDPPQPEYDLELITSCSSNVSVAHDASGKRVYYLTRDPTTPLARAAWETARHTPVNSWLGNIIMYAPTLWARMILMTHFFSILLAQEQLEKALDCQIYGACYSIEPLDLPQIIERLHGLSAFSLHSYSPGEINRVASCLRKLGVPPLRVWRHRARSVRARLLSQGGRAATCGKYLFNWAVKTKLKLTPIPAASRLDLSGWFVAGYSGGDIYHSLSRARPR

One assay addresses HCV RNA-dependent RNA polymerase NS5B (Δ21) (Hepatitis C virus genotype 1b, UniProt P26663). Briefly: Assay for HCV RNA-dependent RNA polymerase activity (SPA, [3H]-GTP incorporation). As to conditions: read-out: Δ21 Activity (IC50 μM); 50 nM NS5B (Δ21), class symbols. Format: biochemical. On the procedure: Inhibitory activity of the present compounds against HCV RNA-dependent RNA polymerase was assayed according to the methods disclosed in United States Patent Application US2004/038993, content of which is incorporated herein by reference; and those described in Ferrari, E.; Wright-Minogue, J.; Fang, J. W. S.; Baroudy, B. M.; Lau, J. Y. N.; Hong, Z. J. Virol. 1999, 73, 1649.
Briefly, 50 μl reactions containing 20 mM HEPES (pH 7.3), 7.5 mM DTT, 20 units/ml RNasIN, 0.5 μg/ml biotinylated oligoG12, 5 μg/ml polyC, 5 μM GTP, 20 μCi/ml [^3H]-GTP, 10 mM MgCl2, 60 mM NaCl, 100 μg/ml BSA, and 50 nM NS5B (Δ21) were incubated at room temperature for three hours in 96-well plates with or without test compounds. Assay was terminated by the addition of 50 μl 10 mg/ml streptavidin-coated SPA beads supplemented with 100 mM EDTA, and the incorporation of labeled GTP determined by a TopCount Scintillation Counter. IC50 values were calculated from single experiments using 11 serial 2-fold dilutions (0.05-50 μM), and data were considered reliable only when the IC50 value of a positive internal control was within standard deviation range.
Broadly, the IC50 is the midpoint of a concentration-inhibition curve. Take `O=C(Cn1nc(C(=O)N2CCN(c3ccccc3)CC2)cc1C(=O)N[C@H]1CCCC[C@@H]1OCc1ccccc1)N[C@H]1CCCC[C@@H]1OCc1ccccc1` [Compound 140]: the IC50 was in the range of 0.1 to 1 µM.
On to `O=C(Cn1nc(C(=O)N2c3ccccc3CCc3ccccc32)cc1C(=O)N[C@H]1CCCC[C@@H]1OCc1ccccc1)N[C@H]1CCCC[C@@H]1OCc1ccccc1` [Compound 119], for which the IC50 was 0.1 to 1 µM.
Still for that read-out and setting: the same measure for `O=C(Cn1nc(C(=O)O)nc1C(=O)N[C@H]1CCCC[C@@H]1OCc1ccccc1)N[C@H]1CCCC[C@@H]1OCc1ccccc1` [Compound 66]: 0.1 to 1 µM.
Turning to `O=C(Cn1nc(C(=O)N2CCOCC2)cc1C(=O)N[C@H]1CCCC[C@@H]1OCc1ccccc1)N[C@H]1CCCC[C@@H]1OCc1ccccc1` [Compound 150], the IC50 was in the range of 0.1 to 1 µM.
For `CN(Cc1cccc2ccccc12)C(=O)c1cc(C(=O)N[C@H]2CCCC[C@@H]2OCc2ccccc2)n(CC(=O)N[C@H]2CCCC[C@@H]2OCc2ccccc2)n1` [Compound 130], the IC50 was in the range of 0.1 to 1 µM.
The same measure, in the same setting: the same measure for `O=C(Cn1nc(C(=O)N2CCCC3CC=CC=C32)cc1C(=O)N[C@H]1CCCC[C@@H]1OCc1ccccc1)N[C@H]1CCCC[C@@H]1OCc1ccccc1` (some centres unmarked) [Compound 86]: 0.1 to 1 µM; for `O=C(Cn1nc(C(=O)NCCc2ccccc2Cl)cc1C(=O)N[C@H]1CCCC[C@@H]1OCc1ccccc1)N[C@H]1CCCC[C@@H]1OCc1ccccc1` [Compound 103]: 0.1 to 1 µM; for `O=C(Cn1nc(NS(=O)(=O)c2ccc(F)cc2F)cc1C(=O)N[C@H]1CCCC[C@@H]1OCc1ccccc1)N[C@H]1CCCC[C@@H]1OCc1ccccc1` [Compound 79]: 0.1 to 1 µM.
Regarding `O=C(Cn1nc(C(=O)NCc2ccncc2)cc1C(=O)N[C@H]1CCCC[C@@H]1OCc1ccccc1)N[C@H]1CCCC[C@@H]1OCc1ccccc1` [Compound 138], the IC50 fell in the range of 0.1 to 1 µM.
Take `O=C(Cn1nc(C(=O)c2ccccc2)cc1C(=O)N[C@H]1CCCC[C@@H]1OCc1ccccc1)N[C@H]1CCCC[C@@H]1OCc1ccccc1` [Compound 88]: the IC50 is 0.1 to 1 µM.
The same measure, in the same setting: for `COc1ccc(OC)c(S(=O)(=O)Nc2cc(C(=O)N[C@H]3CCCC[C@@H]3OCc3ccccc3)n(CC(=O)N[C@H]3CCCC[C@@H]3OCc3ccccc3)n2)c1` [Compound 97] the value was 0.1 to 1 µM.
The same measure, in the same setting: the same measure for `O=C(Cn1nc(C(=O)NCc2ccccc2Cl)cc1C(=O)N[C@H]1CCCC[C@@H]1OCc1ccccc1)N[C@H]1CCCC[C@@H]1OCc1ccccc1` [Compound 81]: 0.1 to 1 µM; for `O=C(Cn1nc(C(=O)NCc2cccs2)cc1C(=O)N[C@H]1CCCC[C@@H]1OCc1ccccc1)N[C@H]1CCCC[C@@H]1OCc1ccccc1` [Compound 92]: 0.1 to 1 µM; for `CN(C)c1cccc2c(S(=O)(=O)NCCNC(=O)c3cc(C(=O)N[C@H]4CCCC[C@@H]4OCc4ccccc4)n(CC(=O)N[C@H]4CCCC[C@@H]4OCc4ccccc4)n3)cccc12` [Compound 64]: 0.1 to 1 µM.
The same measure, in the same setting: for `O=C(Cn1nc(C(=O)NCc2ccc(Cl)cc2Cl)cc1C(=O)N[C@H]1CCCC[C@@H]1OCc1ccccc1)N[C@H]1CCCC[C@@H]1OCc1ccccc1` [Compound 148] the value was 0.1 to 1 µM; for `Cc1ccc(S(=O)(=O)Nc2cc(C(=O)N[C@H]3CCCC[C@@H]3OCc3ccccc3)n(CC(=O)N[C@H]3CCCC[C@@H]3OCc3ccccc3)n2)cc1` [Compound 106], 0.1 to 1 µM; for `O=C(Cn1nc(C=NO)cc1C(=O)N[C@H]1CCCC[C@@H]1OCc1ccccc1)N[C@H]1CCCC[C@@H]1OCc1ccccc1` [Compound 143], 0.1 to 1 µM.
In the case of `O=C(Cn1nc(C(=O)NCC2CCCCC2)cc1C(=O)N[C@H]1CCCC[C@@H]1OCc1ccccc1)N[C@H]1CCCC[C@@H]1OCc1ccccc1` [Compound 137], the IC50 lay in the range of 0.1 to 1 µM.
For `COC(CNC(=O)c1cc(C(=O)N[C@H]2CCCC[C@@H]2OCc2ccccc2)n(CC(=O)N[C@H]2CCCC[C@@H]2OCc2ccccc2)n1)OC` [Compound 146], the IC50 lay in the range of 0.1 to 1 µM.
Take `O=C(Cn1nc(C(=O)O)nc1C(=O)Nc1ccccc1OCc1ccccc1)N[C@H]1CCCC[C@@H]1OCc1ccccc1` [Compound 62]: the IC50 lay within 0.1 to 1 µM.
Still for that read-out and setting: the same measure for `CCOC(=O)c1cc(C(=O)N[C@H]2CCCC[C@@H]2OCc2ccccc2)n(CC(=O)Nc2ccccc2Oc2ccc(Cl)c(C)c2)n1` [Compound 136]: 0.1 to 1 µM.
As for `CC(C)(C)c1ccc(S(=O)(=O)Nc2cc(C(=O)N[C@H]3CCCC[C@@H]3OCc3ccccc3)n(CC(=O)N[C@H]3CCCC[C@@H]3OCc3ccccc3)n2)cc1` [Compound 87], the IC50 lay in the range of 0.1 to 1 µM.

Still in this assay, the particulars now being: Δ21 Activity (IC50 μM), 50 nM NS5B (Δ21), class symbols.
Regarding `O=C(Cn1nc(C(=O)Nc2ccc(-c3ccccc3)cc2)cc1C(=O)N[C@H]1CCCC[C@@H]1OCc1ccccc1)NC1CCCC[C@@H]1OCc1ccccc1` (some centres unmarked) [Compound 203], the IC50 was greater than 1 µM.
Same read-out and setting: for `O=C(Cn1nc(NS(=O)(=O)c2ccc(C(F)(F)F)cc2)cc1C(=O)N[C@H]1CCCC[C@@H]1OCc1ccccc1)N[C@H]1CCCC[C@@H]1OCc1ccccc1` [Compound 47] the value was 0.05 to 0.1 µM; for `O=C(Cn1nc(C(=O)O)cc1C(=O)Nc1cc(C(F)(F)F)ccc1OCc1ccccc1)N[C@H]1CCCC[C@@H]1OCc1ccccc1` [Compound 14], less than 0.05 µM.
With `COc1ccc(NC(=O)c2cc(C(=O)O)nn2CC(=O)N[C@H]2CCCC[C@@H]2OCc2ccccc2)c(OCc2ccccc2)c1` [Compound 201], the half-maximal inhibitory concentration (IC50) is greater than 1 µM.
For the compound `CCOC(=O)c1cc(C(=O)N(C)[C@H]2CCCC[C@@H]2OCc2ccccc2)n(CC(=O)N(C)C2CCCC[C@@H]2OCc2ccccc2)n1` (some centres unmarked) [Compound 210], the IC50 is greater than 1 µM.
Regarding `O=C(Cn1nc(NS(=O)(=O)c2ccc3ccccc3c2)cc1C(=O)N[C@H]1CCCC[C@@H]1OCc1ccccc1)N[C@H]1CCCC[C@@H]1OCc1ccccc1` [Compound 33], the IC50 lay within 0.05 to 0.1 µM.
The compound `Cc1ccc(OCc2ccsc2)c(NC(=O)c2cc(C(=O)O)nn2CC(=O)N[C@H]2CCCC[C@@H]2OCc2ccccc2)c1` [Compound 8] displayed an IC50 of less than 0.05 µM.
The compound `Cc1ccc(OCC2CCCCC2)c(NC(=O)c2cc(C(=O)NC#N)nn2CC(=O)N[C@H]2CCCC[C@@H]2OCc2ccccc2)c1` [Compound 4] gave an IC50 of less than 0.05 µM.
In turn, `O=C(Cn1nc(C(=O)Nc2ccccc2-c2ccccc2)cc1C(=O)N[C@H]1CCCC[C@@H]1OCc1ccccc1)N[C@H]1CCCC[C@@H]1OCc1ccccc1` [Compound 179] returned an IC50 greater than 1 µM.
Same read-out and setting: the same measure for `O=C(Cn1nc(C(=O)NCC(c2ccccc2)c2ccccc2)cc1C(=O)N[C@H]1CCCC[C@@H]1OCc1ccccc1)NC1CCCC[C@@H]1OCc1ccccc1` (some centres unmarked) [Compound 204]: greater than 1 µM; for `O=C(Cn1nc(NS(=O)(=O)c2ccc(I)cc2)cc1C(=O)N[C@H]1CCCC[C@@H]1OCc1ccccc1)N[C@H]1CCCC[C@@H]1OCc1ccccc1` [Compound 19]: 0.05 to 0.1 µM; for `Nc1ccccc1Oc1ccccc1CNC(=O)c1cc(C(=O)O)nn1CC(=O)N[C@H]1CCCC[C@@H]1OCc1ccccc1` [Compound 209]: greater than 1 µM.
Same read-out and setting: for `COc1ccc(CNC(=O)c2cc(C(=O)N[C@H]3CCCC[C@@H]3OCc3ccccc3)n(CC(=O)N[C@H]3CCCC[C@@H]3OCc3ccccc3)n2)cc1` [Compound 40] the value was 0.05 to 0.1 µM; for `O=C(Cn1nc(C(=O)NCCCn2ccnc2)cc1C(=O)N[C@H]1CCCC[C@@H]1OCc1ccccc1)N[C@H]1CCCC[C@@H]1OCc1ccccc1` [Compound 188], greater than 1 µM; for `CCOCCN(CCOCC)C(=O)c1cc(C(=O)N[C@H]2CCCC[C@@H]2OCc2ccccc2)n(CC(=O)N[C@H]2CCCC[C@@H]2OCc2ccccc2)n1` [Compound 177], greater than 1 µM.
Take `COc1cccc(NC(=O)c2cc(C(=O)N[C@H]3CCCC[C@@H]3OCc3ccccc3)n(CC(=O)N[C@H]3CCCC[C@@H]3OCc3ccccc3)n2)c1` [Compound 16]: the IC50 was less than 0.05 µM.
On the same count and under the same terms, the same measure for `CCOC(=O)c1cc(C(=O)N[C@H]2CCCC[C@@H]2OCc2ccccc2)n(CC(=O)Nc2ncccc2Oc2ccccc2)n1` [Compound 200]: greater than 1 µM; for `O=C(Cn1nc(NS(=O)(=O)c2ccc(Br)cc2)cc1C(=O)N[C@H]1CCCC[C@@H]1OCc1ccccc1)N[C@H]1CCCC[C@@H]1OCc1ccccc1` [Compound 13]: less than 0.05 µM; for `O=C(Cn1nc(C(=O)O)cc1C(=O)NC12CC3CC(CC(C3)C1)C2)NC1CCCC[C@@H]1OCc1ccccc1` (some centres unmarked) [Compound 207]: greater than 1 µM.

The assay is the same for the next values; noted with them: Δ21 Activity (IC50 μM), 50 nM NS5B (Δ21), numeric values.
`N#CNC(=O)c1cc(C(=O)Nc2ccccc2OCc2ccccc2)n(CC(=O)N[C@H]2CCCC[C@@H]2OCc2ccccc2)n1` [drawing 245] showed an IC50 of 0.024 µM.
`Cc1ccc(OCc2ccsc2)c(NC(=O)c2cc(C(=O)O)nn2CC(=O)N[C@H]2CCCC[C@@H]2OCc2ccccc2)c1` [drawing 247] returned an IC50 of 0.032 µM.
In turn, `O=C(Cn1nc(C(=O)O)cc1C(=O)Nc1ccc(F)cc1OCC1CCCCC1)N[C@H]1CCCC[C@@H]1OCc1ccccc1` [drawing 249] yielded an IC50 of 0.035 µM.
On the same count and under the same terms, the same measure for `Cc1ccc(OCc2ccccc2)c(NC(=O)c2cc(-c3nnn[nH]3)nn2CC(=O)N[C@H]2CCCC[C@@H]2OCc2ccccc2)c1` [drawing 240]: 0.02 µM; for `O=C(Cn1nc(NS(=O)(=O)c2ccc(Cl)cc2)cc1C(=O)N[C@H]1CCCC[C@@H]1OCc1ccccc1)N[C@H]1CCCC[C@@H]1OCc1ccccc1` [drawing 250]: 0.036 µM; for `O=C(Cn1nc(-c2nnn[nH]2)cc1C(=O)N[C@H]1CCCC[C@@H]1OCc1ccccc1)N[C@H]1CCCC[C@@H]1OCc1ccccc1`: 0.05 µM.
